Reference: ChEMBL document CHEMBL3046035, “Synthesis and biological evaluation of novel 4,5-dihydropyrazole derivatives as potent anticancer and antimicrobial agents” (Med Chem Res, 2013)
Converted amounts (≈) assume the structure as drawn.

What was measured:
Aspergillus niger = assay: Antimicrobial activity against Aspergillus niger ATCC 6275 assessed as growth inhibition after 24 hr by broth microdilution method; format: functional; conditions: ATCC 6275, 24 h
Escherichia coli = assay: Antimicrobial activity against Escherichia coli ATCC 10536 assessed as growth inhibition after 24 hr by broth microdilution method; format: functional; conditions: ATCC 10536, 24 h
Pseudomonas aeruginosa = assay: Antimicrobial activity against Pseudomonas aeruginosa ATCC 10145 assessed as growth inhibition after 24 hr by broth microdilution method; format: functional; conditions: ATCC 10145, 24 h
Candida tropicalis = assay: Antimicrobial activity against Candida tropicalis ATCC 1369 assessed as growth inhibition after 24 hr by broth microdilution method; format: functional; conditions: ATCC 1369, 24 h
Staphylococcus aureus = assay: Antimicrobial activity against Staphylococcus aureus ATCC 11632 assessed as growth inhibition after 24 hr by broth microdilution method; format: functional; conditions: ATCC 11632, 24 h
Klebsiella pneumoniae = assay: Antimicrobial activity against Klebsiella pneumoniae ATCC 10031 assessed as growth inhibition after 24 hr by broth microdilution method; format: functional; conditions: ATCC 10031, 24 h
HeLa = assay: Anticancer activity against Homo sapiens (human) HeLa cells assessed as inhibition of cell viability after 96 hr by MTT assay; format: functional, cell-based
Saccharomyces cerevisiae = assay: Antimicrobial activity against Saccharomyces cerevisiae ATCC 9763 assessed as growth inhibition after 24 hr by broth microdilution method; format: functional; conditions: ATCC 9763, 24 h
BGC-823 = assay: Anticancer activity against Homo sapiens (human) BGC823 cells assessed as inhibition of cell viability after 96 hr by MTT assay; format: functional, cell-based; conditions: BGC-823, 96 h
A2780 = assay: Anticancer activity against Homo sapiens (human) A2780 cells assessed as inhibition of cell viability after 96 hr by MTT assay; format: functional, cell-based; conditions: A2780, 96 h
A549 = assay: Anticancer activity against Homo sapiens (human) A549 cells assessed as inhibition of cell viability after 96 hr by MTT assay; format: functional, cell-based; conditions: A549, 96 h
Enterococcus faecalis = assay: Antimicrobial activity against Enterococcus faecalis ATCC 14506 assessed as growth inhibition after 24 hr by broth microdilution method; format: functional; conditions: ATCC 14506, 24 h
Bacillus subtilis = assay: Antimicrobial activity against Bacillus subtilis ATCC 60511 assessed as growth inhibition after 24 hr by broth microdilution method; format: functional; conditions: ATCC 60511, 24 h
MCF7 = assay: Anticancer activity against Homo sapiens (human) MCF7 cells assessed as inhibition of cell viability after 96 hr by MTT assay; format: functional, cell-based; conditions: MCF7, 96 h

Structure (SMILES) | MIC (Aspergillus niger) [µg/mL] | MIC (Escherichia coli) [µg/mL] | MIC (Pseudomonas aeruginosa) [µg/mL] | MIC (Candida tropicalis) [µg/mL] | MIC (Staphylococcus aureus) [µg/mL] | MIC (Klebsiella pneumoniae) [µg/mL] | IC50 (HeLa) [µM] | MIC (Saccharomyces cerevisiae) [µg/mL] | IC50 (BGC-823) [µM] | IC50 (A2780) [µM] | IC50 (A549) [µM] | MIC (Enterococcus faecalis) [µg/mL] | MIC (Bacillus subtilis) [µg/mL] | IC50 (MCF7) [µM]
Oc1ccc(-c2csc(N3N=C(c4ccccc4)CC3c3c(F)cccc3F)n2)cc1 (centres undefined) | 16 (≈ 36.9 µM) | 62.5 (≈ 144 µM) | 62.5 (≈ 144 µM) | 125 (≈ 288 µM) | 16 (≈ 36.9 µM) | 16 (≈ 36.9 µM) | 7.09 | 31.2 (≈ 72.1 µM) | 2.11 | 2.45 | 1.57 | 125 (≈ 288 µM) | 31.2 (≈ 72.1 µM) | 3.04
Fc1cccc(F)c1C1CC(c2ccccc2)=NN1c1nc(-c2ccc(Cl)cc2)cs1 (centres undefined) | 62.5 (≈ 138 µM) | 16 (≈ 35.4 µM) | 31.2 (≈ 69.1 µM) | 62.5 (≈ 138 µM) | 62.5 (≈ 138 µM) | 125 (≈ 277 µM) | 6.24 | 125 (≈ 277 µM) | 1.43 | 3.56 | 2.11 | 8 (≈ 17.7 µM) | 31.2 (≈ 69.1 µM) | 2.76
O=[N+]([O-])c1ccc(-c2csc(N3N=C(c4ccccc4)CC3c3c(F)cccc3F)n2)cc1 (centres undefined) | 16 (≈ 34.6 µM) | 125 (≈ 270 µM) | 31.2 (≈ 67.6 µM) | 125 (≈ 270 µM) | 16 (≈ 34.6 µM) | 16 (≈ 34.6 µM) | 5.76 | 125 (≈ 270 µM) | 1.05 | 2.26 | 1.93 | 16 (≈ 34.6 µM) | 16 (≈ 34.6 µM) | 2.09
Fc1cccc(F)c1C1CC(c2ccccc2)=NN1c1nc(-c2cccnc2)cs1 (centres undefined) | 16 (≈ 38.2 µM) | 16 (≈ 38.2 µM) | 16 (≈ 38.2 µM) | 16 (≈ 38.2 µM) | 31.2 (≈ 74.7 µM) | 31.2 (≈ 74.7 µM) | 5.98 | 31.2 (≈ 74.7 µM) | 1.11 | 3.18 | 1.43 | 31.2 (≈ 74.7 µM) | 31.2 (≈ 74.7 µM) | 2.45
Cc1ccc(/C=N/NC(=O)Cc2csc(N3N=C(c4ccccc4)CC3c3c(F)cccc3F)n2)cc1 (centres undefined) | 16 (≈ 31 µM) | 125 (≈ 242 µM) | 16 (≈ 31 µM) | 8 (≈ 15.5 µM) | 125 (≈ 242 µM) | 125 (≈ 242 µM) | 5.91 | 8 (≈ 15.5 µM) | 1.45 | 2.62 | 1.5 | 16 (≈ 31 µM) | 16 (≈ 31 µM) | 1.65

Other lines, results leading:

MIC (Aspergillus niger) [µg/mL] | MIC (Escherichia coli) [µg/mL] | MIC (Pseudomonas aeruginosa) [µg/mL] | MIC (Candida tropicalis) [µg/mL] | MIC (Staphylococcus aureus) [µg/mL] | MIC (Klebsiella pneumoniae) [µg/mL] | IC50 (HeLa) [µM] | MIC (Saccharomyces cerevisiae) [µg/mL] | IC50 (BGC-823) [µM] | IC50 (A2780) [µM] | IC50 (A549) [µM] | MIC (Enterococcus faecalis) [µg/mL] | MIC (Bacillus subtilis) [µg/mL] | IC50 (MCF7) [µM] | Structure (SMILES)
8 (≈ 16.9 µM) | 16 (≈ 33.7 µM) | 125 (≈ 264 µM) | 62.5 (≈ 132 µM) | 125 (≈ 264 µM) | 31.2 (≈ 65.9 µM) | 6.13 | 16 (≈ 33.7 µM) | 3.31 | 4.51 | 3.25 | 125 (≈ 264 µM) | 31.2 (≈ 65.9 µM) | 1.89 | Fc1cccc(F)c1C1CC(c2ccccc2)=NN1C1=NC(c2ccc(Cl)cc2Cl)S1 (centres undefined)
125 (≈ 308 µM) | 16 (≈ 39.5 µM) | 62.5 (≈ 154 µM) | 31.2 (≈ 77.1 µM) | 16 (≈ 39.5 µM) | 16 (≈ 39.5 µM) | 5.71 | 62.5 (≈ 154 µM) | 1.97 | 4.33 | 2.11 | 8 (≈ 19.7 µM) | 31.2 (≈ 77.1 µM) | 1.72 | Fc1cccc(F)c1C1CC(c2ccccc2)=NN1C1=NC(c2ccccc2)S1 (centres undefined)
31.2 (≈ 74.1 µM) | 4 (≈ 9.49 µM) | 4 (≈ 9.49 µM) | 16 (≈ 38 µM) | 16 (≈ 38 µM) | 16 (≈ 38 µM) | 6.23 | 16 (≈ 38 µM) | 1.04 | 3.14 | 3.44 | 31.2 (≈ 74.1 µM) | 31.2 (≈ 74.1 µM) | 4.32 | Oc1ccc(C2N=C(N3N=C(c4ccccc4)CC3c3c(F)cccc3F)S2)cc1 (centres undefined)
8 (≈ 18.4 µM) | 16 (≈ 36.7 µM) | 4 (≈ 9.18 µM) | 8 (≈ 18.4 µM) | 16 (≈ 36.7 µM) | 4 (≈ 9.18 µM) | 6.49 | 16 (≈ 36.7 µM) | 1.23 | 3.26 | 2.53 | 16 (≈ 36.7 µM) | 4 (≈ 9.18 µM) | 2.04 | COc1ccc(C2N=C(N3N=C(c4ccccc4)CC3c3c(F)cccc3F)S2)cc1 (centres undefined)
125 (≈ 277 µM) | 31.2 (≈ 69.4 µM) | 8 (≈ 17.8 µM) | 125 (≈ 277 µM) | 31.2 (≈ 69.4 µM) | 31.2 (≈ 69.4 µM) | 6.62 | 8 (≈ 17.8 µM) | 6.11 | 4.35 | 3.26 | 16 (≈ 35.5 µM) | 62.5 (≈ 139 µM) | 3.22 | O=[N+]([O-])c1ccc(C2N=C(N3N=C(c4ccccc4)CC3c3c(F)cccc3F)S2)cc1 (centres undefined)
31.2 (≈ 87.4 µM) | 62.5 (≈ 175 µM) | 16 (≈ 44.8 µM) | 31.2 (≈ 87.4 µM) | 16 (≈ 44.8 µM) | 16 (≈ 44.8 µM) | 6.45 | 31.2 (≈ 87.4 µM) | 2.35 | 5.32 | 4.58 | 16 (≈ 44.8 µM) | 31.2 (≈ 87.4 µM) | 1.94 | O=C1CSC(N2N=C(c3ccccc3)CC2c2c(F)cccc2F)=N1 (centres undefined)
